From patent US10183936B2, “Hepatitis B core protein allosteric modulators” (priority 2014, dated 2019)

Tests used:
AD38 cells = test: Viability of AD38 cells (Promega CellTiter-Glo) at the end of compound treatment; type: cell-based; settings: 10 μM compound, 6 days, luminescence normalized against DMSO control wells (controls being 100%)
In short: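 Luminescent CellTiter-Glo read-out, taken after supernatant was swapped for tetracycline-free 2% FBS medium with 1% DMSO, gave percent viability relative to DMSO controls set at 100%. Cells were plated at 50,000/well and exposed to compound, added as a 10× stock in 10% DMSO, for 6 days at 37° C.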

[1] = tested on: HBV viral production in AD38 cells; test: Viral load production in AD38 cells by quantitative PCR of the HBV core sequence in supernatant; type: cell-based; settings: Hepatitis B virus, 144 h; 10 μM compound, 6 days at 37° C., viral load in supernatant compared against DMSO control wells; read-out: AD38 Viral Load (CpAM/DMSO %) at 10 μM
In short: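 Read-out is TaqMan qPCR of the HBV core region in supernatant, quantitated against standards and referenced to DMSO controls (≥3 per plate). Cells: AD38 at 50,000/well, exposed to compound (added as 10× stock in 10% DMSO) for 6 days at 37° C.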

## O=C(NCCc1cnco1)c1ccc2c(c1)NC(=O)c1c(F)cccc1S2 [Compound 1580]
AD38 cells
  AD38 Viability Normalized Result (CPAM/DMSO %) at 10 μM: 89%
[1]
  activity at 10 µM: 59%

## CN1c2ccc(C(=O)NCc3cncs3)cc2NC(=O)c2ccccc21 [Compound 1581]
AD38 cells
  AD38 Viability Normalized Result (CPAM/DMSO %) at 10 μM: 97%
[1]
  activity at 10 µM: 3%

## NC(=O)CSc1nnc(CCNC(=O)c2ccc3c(c2)NC(=O)c2ccccc2S3)o1 [Compound 1582]
AD38 cells
  AD38 Viability Normalized Result (CPAM/DMSO %) at 10 μM: 112%
[1]
  activity at 10 µM: 8%

## Cc1nnc(CCNC(=O)c2ccc3c(c2)NC(=O)c2ccccc2S3)[nH]1 [Compound 1583]
AD38 cells
  AD38 Viability Normalized Result (CPAM/DMSO %) at 10 μM: 121%
[1]
  activity at 10 µM: 41%

## O=C(NCc1cscn1)c1ccc2c(c1)NC(=O)c1ccccc1S2 [Compound 1584]
AD38 cells
  AD38 Viability Normalized Result (CPAM/DMSO %) at 10 μM: 95%
[1]
  activity at 10 µM: 52%

## O=C(NCc1ccncn1)c1ccc2c(c1)NC(=O)c1ccccc1S2 [Compound 1585]
AD38 cells
  AD38 Viability Normalized Result (CPAM/DMSO %) at 10 μM: 87%
[1]
  activity at 10 µM: 66%

## O=C(NCc1cnccn1)c1ccc2c(c1)NC(=O)c1ccccc1S2 [Compound 1586]
AD38 cells
  AD38 Viability Normalized Result (CPAM/DMSO %) at 10 μM: 112%
[1]
  activity at 10 µM: 23%

## O=C(NCc1ncccn1)c1ccc2c(c1)NC(=O)c1ccccc1S2 [Compound 1587]
AD38 cells
  AD38 Viability Normalized Result (CPAM/DMSO %) at 10 μM: 92%
[1]
  activity at 10 µM: 78%

## Cc1ncc(CNC(=O)c2ccc3c(c2)NC(=O)c2ccccc2S3)s1 [Compound 1588]
AD38 cells
  AD38 Viability Normalized Result (CPAM/DMSO %) at 10 μM: 98%
[1]
  activity at 10 µM: 0%

## O=C(NCc1cnc(Cl)s1)c1ccc2c(c1)NC(=O)c1ccccc1S2 [Compound 1589]
AD38 cells
  AD38 Viability Normalized Result (CPAM/DMSO %) at 10 μM: 85%
[1]
  activity at 10 µM: 1%

## O=C(NCc1cnc(-c2ccccc2)s1)c1ccc2c(c1)NC(=O)c1ccccc1S2 [Compound 1590]
AD38 cells
  AD38 Viability Normalized Result (CPAM/DMSO %) at 10 μM: 96%
[1]
  activity at 10 µM: 1%

## O=C(NCc1cccnc1)c1ccc2c(c1)NC(=O)c1ccccc1C2 [Compound 1591]
AD38 cells
  AD38 Viability Normalized Result (CPAM/DMSO %) at 10 μM: 111%
[1]
  activity at 10 µM: 13%

## O=C(NCC1CCCO1)c1ccc2c(c1)NC(=O)c1ccccc1S2 (stereo not shown) [Compound 1592]
AD38 cells
  AD38 Viability Normalized Result (CPAM/DMSO %) at 10 μM: 102%
[1]
  activity at 10 µM: 50%

## O=C(NCc1cncs1)c1ccc2c(c1)NC(=O)c1ccccc1O2 [Compound 1593]
AD38 cells
  AD38 Viability Normalized Result (CPAM/DMSO %) at 10 μM: 133%
[1]
  activity at 10 µM: 3%

## O=C(NCc1cccnc1)c1ccc2c(c1)NC(=O)c1ccccc1O2 [Compound 1594]
AD38 cells
  AD38 Viability Normalized Result (CPAM/DMSO %) at 10 μM: 109%
[1]
  activity at 10 µM: 4%

## O=C(NCc1cncnc1)c1ccc2c(c1)NC(=O)c1ccccc1O2 [Compound 1595]
AD38 cells
  AD38 Viability Normalized Result (CPAM/DMSO %) at 10 μM: 108%
[1]
  activity at 10 µM: 3%

## O=C1Nc2cc(S(=O)(=O)NCCc3cncnc3)ccc2Sc2ccccc21 [Compound 1597]
AD38 cells
  AD38 Viability Normalized Result (CPAM/DMSO %) at 10 μM: 87%
[1]
  activity at 10 µM: 64%

## O=C(NCCc1cncs1)c1ccc2c(c1)NC(=O)c1c(F)cccc1S2 [Compound 1598]
AD38 cells
  AD38 Viability Normalized Result (CPAM/DMSO %) at 10 μM: 93%
[1]
  activity at 10 µM: 61%

## O=C(NCc1nnc[nH]1)c1ccc2c(c1)NC(=O)c1ccccc1S2 [Compound 1599]
AD38 cells
  AD38 Viability Normalized Result (CPAM/DMSO %) at 10 μM: 101%
[1]
  activity at 10 µM: 72%

## Cc1ncsc1CNC(=O)c1ccc2c(c1)NC(=O)c1ccccc1S2 [Compound 1600]
AD38 cells
  AD38 Viability Normalized Result (CPAM/DMSO %) at 10 μM: 108%
[1]
  activity at 10 µM: 12%

## CC(=O)N1CCC(CNC(=O)c2ccc3c(c2)NC(=O)c2ccccc2S3)CC1 [Compound 1601, N-((1-acetylpiperidin-4-yl)methyl)-11-oxo-10, 11-dihydrodibenzo [b,f] [1,4] thiazepine-8-carboxamide]
AD38 cells
  AD38 Viability Normalized Result (CPAM/DMSO %) at 10 μM: 106%
[1]
  activity at 10 µM: 62%

## O=C(NCc1cncs1)c1ccc2c(c1)NC(=O)c1ccccc1N2 [Compound 1602, 11-oxo-N-(thiazol-5-ylmethyl)-10, 11-dihydro-5H-dibenzo [b,e] [1,4] diazepine-8-carboxamide]
AD38 cells
  AD38 Viability Normalized Result (CPAM/DMSO %) at 10 μM: 116%
[1]
  activity at 10 µM: 38%

## Cc1nnc(CCNC(=O)c2ccc3c(c2)NC(=O)c2ccccc2S3)o1 [Compound 1603]
AD38 cells
  AD38 Viability Normalized Result (CPAM/DMSO %) at 10 μM: 91%
[1]
  activity at 10 µM: 6%

## CCc1ncc(CNC(=O)c2ccc3c(c2)NC(=O)c2ccccc2S3)s1 [Compound 1604]
AD38 cells
  AD38 Viability Normalized Result (CPAM/DMSO %) at 10 μM: 105%
[1]
  activity at 10 µM: 0%

## O=C(NCc1scnc1-c1ccccc1)c1ccc2c(c1)NC(=O)c1ccccc1S2 [Compound 1605]
AD38 cells
  AD38 Viability Normalized Result (CPAM/DMSO %) at 10 μM: 106%
[1]
  activity at 10 µM: 25%

## O=C(NCC1CCOC1)c1ccc2c(c1)NC(=O)c1ccccc1S2 (stereo not shown) [Compound 1606]
AD38 cells
  AD38 Viability Normalized Result (CPAM/DMSO %) at 10 μM: 104%
[1]
  activity at 10 µM: 7%

## O=C(NCC1CCOCC1)c1ccc2c(c1)NC(=O)c1ccccc1S2 [Compound 1607]
AD38 cells
  AD38 Viability Normalized Result (CPAM/DMSO %) at 10 μM: 93%
[1]
  activity at 10 µM: 14%

## Cl.O=C(NCC1CCNC1)c1ccc2c(c1)NC(=O)c1ccccc1S2 (stereo not shown) [Compound 1608, 11-oxo-N-(pyrrolidin-3-ylmethyl)-10, 11-dihydrodibenz[b,f] [1,4] thiazepine-8-carboxamide hydrochloride]
AD38 cells
  AD38 Viability Normalized Result (CPAM/DMSO %) at 10 μM: 103%
[1]
  activity at 10 µM: 63%

## Cl.O=C(NCC1CCNCC1)c1ccc2c(c1)NC(=O)c1ccccc1S2 [Compound 1609, 11-oxo-N-(piperidin-4-ylmethyl)-10, 11-dihydrodibenzo [b,f] [1,4] thiazepine-8-carboxamide hydrochloride]
AD38 cells
  AD38 Viability Normalized Result (CPAM/DMSO %) at 10 μM: 99%
[1]
  activity at 10 µM: 68%

## CC(C)c1ncc(CNC(=O)c2ccc3c(c2)NC(=O)c2ccccc2S3)s1 [Compound 1611]
AD38 cells
  AD38 Viability Normalized Result (CPAM/DMSO %) at 10 μM: 130%
[1]
  activity at 10 µM: 0%

## COc1ncc(CNC(=O)c2ccc3c(c2)NC(=O)c2ccccc2S3)s1 [Compound 1612]
AD38 cells
  AD38 Viability Normalized Result (CPAM/DMSO %) at 10 μM: 112%
[1]
  activity at 10 µM: 0%

## Nc1ncc(CNC(=O)c2ccc3c(c2)NC(=O)c2ccccc2S3)s1 [Compound 1613]
AD38 cells
  AD38 Viability Normalized Result (CPAM/DMSO %) at 10 μM: 122%
[1]
  activity at 10 µM: 0%

## CC(C)c1ncsc1CNC(=O)c1ccc2c(c1)NC(=O)c1ccccc1S2 [Compound 1614]
AD38 cells
  AD38 Viability Normalized Result (CPAM/DMSO %) at 10 μM: 45%
[1]
  activity at 10 µM: 2%

## CC(=O)N1CCC(CNC(=O)c2ccc3c(c2)NC(=O)c2ccccc2S3)C1 (stereo not shown) [Compound 1615, N-((1-acetylpyrrolidin-3-yl)methyl)-11-oxo-10, 11-dihydrodibenzo [b,f] [1,4] thiazepine-8-carboxamide]
AD38 cells
  AD38 Viability Normalized Result (CPAM/DMSO %) at 10 μM: 123%
[1]
  activity at 10 µM: 32%

## O=C(NCCc1cnco1)c1ccc2c(c1)NC(=O)c1ccccc1S2(=O)=O [Compound 1616]
AD38 cells
  AD38 Viability Normalized Result (CPAM/DMSO %) at 10 μM: 115%
[1]
  activity at 10 µM: 5%

## O=C(NCCc1cncs1)c1ccc2c(c1)NC(=O)c1ccccc1S2(=O)=O [Compound 1617]
AD38 cells
  AD38 Viability Normalized Result (CPAM/DMSO %) at 10 μM: 118%
[1]
  activity at 10 µM: 1%

## O=C(NCCc1ccc(-c2ccccc2)cc1)c1ccc2c(c1)NC(=O)c1ccccc1S2(=O)=O [Compound 1618]
AD38 cells
  AD38 Viability Normalized Result (CPAM/DMSO %) at 10 μM: 44%
[1]
  activity at 10 µM: 0%

## CN(C)S(=O)(=O)c1ccc(CCNC(=O)c2ccc3c(c2)NC(=O)c2ccccc2S3(=O)=O)cc1 [Compound 1619]
AD38 cells
  AD38 Viability Normalized Result (CPAM/DMSO %) at 10 μM: 122%
[1]
  activity at 10 µM: 12%

## O=C(NCc1ccccc1)c1ccc2c(c1)NC(=O)c1ccccc1S2(=O)=O [Compound 1620]
AD38 cells
  AD38 Viability Normalized Result (CPAM/DMSO %) at 10 μM: 111%
[1]
  activity at 10 µM: 3%

## Cc1cccc(CNC(=O)c2ccc3c(c2)NC(=O)c2ccccc2S3(=O)=O)c1 [Compound 1621]
AD38 cells
  AD38 Viability Normalized Result (CPAM/DMSO %) at 10 μM: 117%
[1]
  activity at 10 µM: 1%

## O=C(NCc1cccc(F)c1)c1ccc2c(c1)NC(=O)c1ccccc1S2(=O)=O [Compound 1622]
AD38 cells
  AD38 Viability Normalized Result (CPAM/DMSO %) at 10 μM: 120%
[1]
  activity at 10 µM: 0%

## O=C(NCc1ccc(F)cc1)c1ccc2c(c1)NC(=O)c1ccccc1S2(=O)=O [Compound 1623]
AD38 cells
  AD38 Viability Normalized Result (CPAM/DMSO %) at 10 μM: 128%
[1]
  activity at 10 µM: 1%

## O=C(NCc1cccc(OC(F)(F)F)c1)c1ccc2c(c1)NC(=O)c1ccccc1S2(=O)=O [Compound 1624]
AD38 cells
  AD38 Viability Normalized Result (CPAM/DMSO %) at 10 μM: 136%
[1]
  activity at 10 µM: 1%

## O=C(NCCOc1ccccc1)c1ccc2c(c1)NC(=O)c1ccccc1S2(=O)=O [Compound 1625]
AD38 cells
  AD38 Viability Normalized Result (CPAM/DMSO %) at 10 μM: 111%
[1]
  activity at 10 µM: 2%

## O=C(NCCc1ccc(-n2nccn2)cc1)c1ccc2c(c1)NC(=O)c1ccccc1S2(=O)=O [Compound 1626]
AD38 cells
  AD38 Viability Normalized Result (CPAM/DMSO %) at 10 μM: 118%
[1]
  activity at 10 µM: 0%

## O=C(NCc1ccc(-c2cncnc2)cc1)c1ccc2c(c1)NC(=O)c1ccccc1S2(=O)=O [Compound 1627]
AD38 cells
  AD38 Viability Normalized Result (CPAM/DMSO %) at 10 μM: 115%
[1]
  activity at 10 µM: 5%

## COC(=O)c1ccccc1-c1cccc(NC(=O)c2ccc3c(c2)NC(=O)c2ccccc2S3(=O)=O)c1 [Compound 1628]
AD38 cells
  AD38 Viability Normalized Result (CPAM/DMSO %) at 10 μM: 138%
[1]
  activity at 10 µM: 17%

## O=C(Nc1cccc(-c2cccnc2)c1)c1ccc2c(c1)NC(=O)c1ccccc1S2(=O)=O [Compound 1629]
AD38 cells
  AD38 Viability Normalized Result (CPAM/DMSO %) at 10 μM: 95%
[1]
  activity at 10 µM: 3%

## CCc1ncsc1CNC(=O)c1ccc2c(c1)NC(=O)c1ccccc1S2 [Compound 1631]
AD38 cells
  AD38 Viability Normalized Result (CPAM/DMSO %) at 10 μM: 112%
[1]
  activity at 10 µM: 9%

## O=C(NCc1scnc1Cl)c1ccc2c(c1)NC(=O)c1ccccc1S2 [Compound 1632]
AD38 cells
  AD38 Viability Normalized Result (CPAM/DMSO %) at 10 μM: 122%
[1]
  activity at 10 µM: 2%
